In patent US12655124B2, “Heterocyclic compounds as modulators of stimulator of interferon genes (STING)” (RYVU THERAPEUTICS S.A., priority 2019, dated 2026):
Counter-ions that a name gives are not always drawn.

Tests used:
[1] = tested on: interferon regulatory factor (IRF) pathway in THP-1 dual cells; assay: THP-1 Dual reporter assay, IRF pathway (luciferase); format: cell-based; settings: Homo sapiens, THP1-Dual, 18 h stimulation, luminescence
Description: (§1) THP-1 Dual Reporter Assay
(§2) Compounds of the present invention were tested for their activity using THP-1 dual cells (Invivogen, cat no. thpd-nfis) allowing for simultaneous study of NF-κB pathway and the interferon regulatory factor (IRF) pathway. THP-1 dual cells contain luciferase reporter gene under the control of an ISG54 (interferon-stimulated gene) minimal promoter in conjunction with five interferon-stimulated response elements and a secreted embryonic alkaline phosphatase reporter gene under the control an IFN (interferon)-β minimal promoter fused to five copies of the NF-κB consensus transcriptional response element with three copies of the c-Rel binding site. Following 18 h of stimulation with STING agonist, medium was collected and transferred onto fresh cell culture plate. To verify activity of the IRF pathway, luminescence activity was measured with standard laboratory plate reader immediately after addition 10 μl of the medium to 40 or 50 μl of luminescence reagent (Invivogen, cat. No. rep-qlc2). To verify activity of NF-κB pathway, 10 or 20 μl of the medium was mixed with 80 μl of a detection medium (Invivogen, cat. No. rep-qb2) and incubated for 1 or 2 hours at 37° C. in a humidified atmosphere containing 5% CO2. Next, absorbance at 630 or 655 nm was recorded using standard laboratory plate reader.

[2] = tested on: NF-κB pathway in THP-1 dual cells; assay: THP-1 Dual reporter assay, NF-κB pathway (SEAP); format: cell-based; settings: Homo sapiens, THP1-Dual, 18 h stimulation, absorbance at 630 or 655 nm, read-out: THP1 Dual EC50 (μM) NFkB
Description: as §1, §2

[3] = target: human STING (Homo sapiens, UniProt Q86WV6); assay: Fluorescence Thermal Shift assay (hSTING FTS binding assay); settings: ΔTm, STING 0.1 mg/mL, SyproOrange, 25 to 99° C.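 Note: STING preincubated with compound for 20 min in HEPES NaCl buffer pH 7.5.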
Description: Fluorescence Thermal Shift Assay Compounds of the present invention were tested for binding to human STING in Fluorescence Thermal Shift assay. […] Final STING concentration was 0.1 mg/mL. Thermal unfolding was performed in Real-Time PCR QuantStudio 6 Flex System (Applied Biosystems), from 25 to 99° C., with continuous ramp mode and ramp rate 0.033° C./s. The data were analyzed using Protein Thermal Shift Software (ThermoFisher).

Chain of human STING (Q86WV6 whole entry H232R): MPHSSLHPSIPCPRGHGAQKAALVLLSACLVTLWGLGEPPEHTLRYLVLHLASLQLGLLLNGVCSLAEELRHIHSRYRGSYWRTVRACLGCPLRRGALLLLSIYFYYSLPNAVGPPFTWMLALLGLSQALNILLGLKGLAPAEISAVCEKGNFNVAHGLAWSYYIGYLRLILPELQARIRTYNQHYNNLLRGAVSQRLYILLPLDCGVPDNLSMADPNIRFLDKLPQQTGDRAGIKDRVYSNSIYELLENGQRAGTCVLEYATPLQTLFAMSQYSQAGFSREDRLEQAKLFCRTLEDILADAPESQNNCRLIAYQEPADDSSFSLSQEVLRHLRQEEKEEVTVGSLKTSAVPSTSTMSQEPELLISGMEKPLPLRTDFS

Structure (SMILES)	hSTING FTS binding assay (ΔT ° C.) [3]	EC50 [1]	EC50 [2]
Cc1ccc(N2CCC[C@H](N(Cc3ccnc(C)c3)Cc3cn(C)c4cc(N5CC[C@H](N)C(F)(F)C5)ccc4c3=O)C2)cn1 (single isomer, unassigned) [Example 51]	–	≤ 1 µM	1 to 10 µM
Cc1cc(CN(Cc2cn(C(C)C)c3cc(F)c(F)cc3c2=O)[C@H]2CCCN(c3ccc(N)nc3)C2)ccn1.Cl [Example 24, 3-({[(3S)-1-(6-aminopyridin-3-yl)piperidin-3-yl][(2-methylpyridin-4-yl)methyl]amino}methyl)-6,7-difluoro-1-(propan-2-yl)-1,4-dihydroquinolin-4-one Hydrochloride]	+++ (ΔTm≥20° C.)	≤ 1 µM	≤ 1 µM
Cc1ccc(N2CCC[C@H](N(Cc3ccnc(C)c3)Cc3cn(C4CC4)c4cc(NC(=O)CN)c(F)cc4c3=O)C2)cn1 [Example 25, 2-amino-N-[1-cyclopropyl-6-fluoro-3-({[(3S)-1-(6-methylpyridin-3-yl)piperidin-3-yl][(2-methylpyridin-4-yl)methyl]amino}methyl)-4-oxo-1,4-dihydroquinolin-7-yl]acetamide]	+++ (ΔTm≥20° C.)	≤ 1 µM	≤ 1 µM
Cc1ccc(N2CCC[C@H](N(Cc3ccnc(C)c3)Cc3cn(C4CC4)c4nc(N)c(F)cc4c3=O)C2)cn1 [Example 36, 7-amino-1-cyclopropyl-6-fluoro-3-({[(3S)-1-(6-methylpyridin-3-yl)piperidin-3-yl][(2-methylpyridin-4-yl)methyl]amino}methyl)-1,4-dihydro-1,8-naphthyridin-4-one]	–	≤ 1 µM	≤ 1 µM
Cc1cc(CN(Cc2cn(C)c3ccccc3c2=O)[C@H]2CCCN(c3ccc(CCO)nc3)C2)ccn1 [Example 43, 3-({[(3S)-1-[6-(2-hydroxyethyl)pyridin-3-yl]piperidin-3-yl][(2-methylpyridin-4-yl)methyl]amino}methyl)-1-methyl-1,4-dihydroquinolin-4-one]	–	1 to 10 µM	1 to 10 µM
Cc1cc(CN(Cc2cn(C)c3ccccc3c2=O)[C@H]2CCCN(c3cncc(CO)c3)C2)ccn1 [Example 44, 3-({[(3S)-1-[5-(hydroxymethyl)pyridin-3-yl]piperidin-3-yl][(2-methylpyridin-4-yl)methyl]amino}methyl)-1-methyl-1,4-dihydroquinolin-4-one]	–	≥ 10 µM	≥ 10 µM
Cc1ccc(N2CCC[C@H](N(Cc3ccnc(C)c3)Cc3cn(C4CC4)c4cc(N5CC[C@@H](O)C5)ccc4c3=O)C2)cn1 [Example 45, 1-cyclopropyl-7-[(3R)-3-hydroxypyrrolidin-1-yl]-3-({[(3S)-1-(6-methylpyridin-3-yl)piperidin-3-yl][(2-methylpyridin-4-yl)methyl]amino}methyl)-1,4-dihydroquinolin-4-one]	+++ (ΔTm≥20° C.)	≤ 1 µM	≤ 1 µM
Cc1cc(CN(Cc2cn(C)c3cc(N4CCC(C(=O)O)CC4)ccc3c2=O)[C@H]2CCCN(c3cccnc3)C2)ccn1 [Example 46, 1-[1-methyl-3-({[(2-methylpyridin-4-yl)methyl][(3S)-1-(pyridin-3-yl)piperidin-3-yl]amino}methyl)-4-oxo-1,4-dihydroquinolin-7-yl]piperidine-4-carboxylic Acid]	++ (10<ΔTm<20° C.)	≥ 10 µM	≥ 10 µM
Cc1ccc(N2CCC[C@H](N(Cc3ccnc(C)c3)Cc3cn(C4CC4)c4cc(-n5cc(C(N)=O)nn5)c(F)cc4c3=O)C2)cn1 [Example 60, 1-[1-Cyclopropyl-6-fluoro-3-({[(3S)-1-(6-methylpyridin-3-yl)piperidin-3-yl][(2-methylpyridin-4-yl)methyl]amino}methyl)-4-oxo-1,4-dihydroquinolin-7-yl]-1H-1,2,3-triazole-4-carboxamide]	–	≤ 1 µM	≤ 1 µM
Cc1ccc(N2CCC[C@H](N(Cc3ccnc(C)c3)Cc3cn(C4CC4)c4cc(-n5cc(CO)nn5)c(F)cc4c3=O)C2)cn1 [Example 61, 1-Cyclopropyl-6-fluoro-7-[4-(hydroxymethyl)-1H-1,2,3-triazol-1-yl]-3-({[(3S)-1-(6-methylpyridin-3-yl)piperidin-3-yl][(2-methylpyridin-4-yl)methyl]amino}methyl)-1,4-dihydroquinolin-4-one]	–	≤ 1 µM	≤ 1 µM
Cc1ccc(N2CCC[C@H](N(Cc3ccnc(C)c3)Cc3cn(C)c4c(OCCO)cccc4c3=O)C2)cn1 [Example 63, 8-(2-hydroxyethoxy)-1-methyl-3-({[(3S)-1-(6-methylpyridin-3-yl)piperidin-3-yl][(2-methylpyridin-4-yl)methyl]amino}methyl)-1,4-dihydroquinolin-4-one]	–	≤ 1 µM	≤ 1 µM
COc1cc(CN(Cc2cn(C3CC3)c3cc(N4CC[C@@H](O)C4)c(F)cc3c2=O)[C@H]2CCCN(c3cccnc3)C2)ccn1 [Example 65, 1-cyclopropyl-6-fluoro-7-[(3R)-3-hydroxypyrrolidin-1-yl]-3-({[(2-methoxypyridin-4-yl)methyl][(3S)-1-(pyridin-3-yl)piperidin-3-yl]amino}methyl)-1,4-dihydroquinolin-4-one Hydrochloride]	–	≤ 1 µM	≤ 1 µM
Cc1cc(CN(Cc2cn(C3CC3)c3cc(N4CC[C@@H](O)C4)c(F)cc3c2=O)[C@H]2CCCN(c3cccnc3)C2)ccn1 [Example 78, 1-cyclopropyl-6-fluoro-7-[(3R)-3-hydroxypyrrolidin-1-yl]-3-({[(2-methylpyridin-4-yl)methyl][(3S)-1-(pyridin-3-yl)piperidin-3-yl]amino}methyl)-1,4-dihydroquinolin-4-one]	+++ (ΔTm≥20° C.)	–	–
Cc1ccc(N2CCC[C@H](N(Cc3ccnc(C)c3)Cc3cn(C4CC4)c4cc(CN)c(F)cc4c3=O)C2)cn1 [Example 80, 7-(aminomethyl)-1-cyclopropyl-6-fluoro-3-({[(3S)-1-(6-methylpyridin-3-yl)piperidin-3-yl][(2-methylpyridin-4-yl)methyl]amino}methyl)-1,4-dihydroquinolin-4-one]	–	≤ 1 µM	≤ 1 µM
Cc1cnc(N2C[C@@H](F)C[C@H](N(Cc3ccnc(C)c3)Cc3cn(C4CC4)c4cc(N5CCC[C@H](O)C5)c(F)cc4c3=O)C2)cn1 [Example 82, 1-cyclopropyl-6-fluoro-3-({[(3S,5S)-5-fluoro-1-(5-methylpyrazin-2-yl)piperidin-3-yl][(2-methylpyridin-4-yl)methyl]amino}methyl)-7-[(3S)-3-hydroxypiperidin-1-yl]-1,4-dihydroquinolin-4-one]	++ (10<ΔTm<20° C.)	–	–
Cc1cc(CN(Cc2cn(C3CC3)c3cc(OCCO)c(F)cc3c2=O)[C@H]2CCCN(c3cccnc3)C2)ccn1 [Example 84, 1-cyclopropyl-6-fluoro-7-(2-hydroxyethoxy)-3-({[(2-methylpyridin-4-yl)methyl][(3S)-1-(pyridin-3-yl)piperidin-3-yl]amino}methyl)-1,4-dihydroquinolin-4-one Hydrochloride]	–	≤ 1 µM	≤ 1 µM
Cc1cc(CN(Cc2cn(C3CC3)c3cc(N4CCC[C@H](O)C4)c(F)cc3c2=O)[C@H]2CCCN(c3cccnc3)C2)ccn1.Cl [Example 86, 1-cyclopropyl-6-fluoro-7-[(3S)-3-hydroxypiperidin-1-yl]-3-({[(2-methylpyridin-4-yl)methyl][(3S)-1-(pyridin-3-yl)piperidin-3-yl]amino}methyl)-1,4-dihydroquinolin-4-one Hydrochloride]	+++ (ΔTm≥20° C.)	–	–
Cc1cc(CN(Cc2cn(C3CC3)c3cc(OCCO)c(F)cc3c2=O)[C@H]2CCCN(c3ccc(Cl)nc3)C2)ccn1 [Example 97, 3-({[(3S)-1-(6-chloropyridin-3-yl)piperidin-3-yl][(2-methylpyridin-4-yl)methyl]amino}methyl)-1-cyclopropyl-6-fluoro-7-(2-hydroxyethoxy)-1,4-dihydroquinolin-4-one Hydrochloride]	–	≤ 1 µM	≤ 1 µM

Now from value to compound, other results behind:

hSTING FTS binding assay (ΔT ° C.) [3]	Structure (SMILES)	EC50 [1]	EC50 [2]
+ (ΔTm≤10° C.)	Cc1ccc(N2CCC[C@H](N(Cc3ccnc(C)c3)Cc3cn(CCN)c4ccccc4c3=O)C2)cn1 [Example 18, 1-(2-Aminoethyl)-3-({[(3S)-1-(6-methylpyridin-3-yl)piperidin-3-yl][(2-methylpyridin-4-yl)methyl]amino}methyl)-1,4-dihydroquinolin-4-one]	1 to 10 µM	1 to 10 µM
+++ (ΔTm≥20° C.)	Cc1ccc(N2C[C@@H](F)C[C@H](N(Cc3ccnc(C)c3)Cc3cn(C4CC4)c4cc(OCCO)c(F)cc4c3=O)C2)cn1 [Example 75, 1-cyclopropyl-6-fluoro-3-({[(3S,5S)-5-fluoro-1-(6-methylpyridin-3-yl)piperidin-3-yl][(2-methylpyridin-4-yl)methyl]amino}methyl)-7-(2-hydroxyethoxy)-1,4-dihydroquinolin-4-one]	–	–
